Test results as given in ChEMBL document CHEMBL1201862, “PubChem BioAssay data set” (2004).
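Values below derive from 48-hour exposures of cells grown in 96-well plates, with endpoints linearly interpolated between the two concentrations bracketing the appropriate inhibition level. GI50 = concentration required for 50% inhibition of growth.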 Calls of active or inactive are those of the source. No stated cut-off is given here; in the data, active = GI50 up to about 1.1 µM and inactive = higher.

What was measured:
Assay in all cases: inhibition of tumour cell growth, NCI panel, 48 h
A549 = test system: A549
DU-145 = test system: DU-145
HOP-62 = test system: HOP-62
HOP-92 = test system: HOP-92
KM12 = test system: KM12
LOX IMVI = test system: LOX IMVI
MDA-MB-231 = test system: MDA-MB-231
MDA-MB-435 = test system: MDA-MB-435
MDA-N = test system: MDA-N
NCI-H23 = test system: NCI-H23
NCI-H460 = test system: NCI-H460
NCI/ADR-RES = test system: NCI/ADR-RES
OVCAR-3 = test system: OVCAR-3
PC-3 = test system: PC-3
SF-295 = test system: SF-295
SF-539 = test system: SF-539
T47D = test system: T47D
U-251 = test system: U-251
UACC-62 = test system: UACC-62
CCRF-CEM = test system: CCRF-CEM

SMILES | GI50 (A549) | GI50 (DU-145) | GI50 (HOP-62) | GI50 (HOP-92) | GI50 (KM12) | GI50 (LOX IMVI) | GI50 (MDA-MB-231) | GI50 (MDA-MB-435) | GI50 (MDA-N) | GI50 (NCI-H23) | GI50 (NCI-H460) | GI50 (NCI/ADR-RES) | GI50 (OVCAR-3) | GI50 (PC-3) | GI50 (SF-295) | GI50 (SF-539) | GI50 (T47D) | GI50 (U-251) | GI50 (UACC-62) | GI50 (CCRF-CEM)
Cc1ccc(S(=O)(=O)c2ccsc2NC(=O)c2ccccc2)cc1 | 48.1 µM (inactive) | > 100 µM (inactive) | 17 µM (inactive) | 26.7 µM (inactive) | > 100 µM (inactive) | > 64 µM (inactive) | 14.8 µM (inactive) | 3.11 µM (inactive) | 3.39 µM (inactive) | > 31.6 µM (inactive) | 41.1 µM (inactive) | 35.2 µM (inactive) | > 100 µM (inactive) | > 81.5 µM (inactive) | 22.1 µM (inactive) | 15.4 µM (inactive) | > 100 µM (inactive) | 49.3 µM (inactive) | > 100 µM (inactive) | –
CC(=O)OC(=C(C#N)C#N)c1nccnc1C(=O)O | > 100 µM (inactive) | > 100 µM (inactive) | – | > 100 µM (inactive) | > 100 µM (inactive) | > 100 µM (inactive) | > 100 µM (inactive) | > 100 µM (inactive) | > 100 µM (inactive) | > 100 µM (inactive) | > 100 µM (inactive) | > 100 µM (inactive) | > 100 µM (inactive) | > 100 µM (inactive) | > 100 µM (inactive) | > 100 µM (inactive) | > 100 µM (inactive) | > 100 µM (inactive) | > 100 µM (inactive) | –
O=C(c1cc2c(c3ccccc13)NCCN=C2C(F)(F)F)C(F)(F)F | – | 41.4 µM (inactive) | 19.7 µM (inactive) | 21.9 µM (inactive) | 19.4 µM (inactive) | 13.7 µM (inactive) | 20.2 µM (inactive) | 34.2 µM (inactive) | 21.4 µM (inactive) | 40.6 µM (inactive) | 15.5 µM (inactive) | 27 µM (inactive) | 26 µM (inactive) | 14.6 µM (inactive) | 16 µM (inactive) | 20.1 µM (inactive) | 21.4 µM (inactive) | 13.5 µM (inactive) | – | 17 µM (inactive)
O=C(/N=C1/OC(CN2CCOCC2)CN1C(=O)Nc1ccccc1)Nc1ccccc1 (stereo unspecified) | > 100 µM (inactive) | > 100 µM (inactive) | > 100 µM (inactive) | 94.6 µM (inactive) | > 100 µM (inactive) | > 100 µM (inactive) | > 100 µM (inactive) | > 100 µM (inactive) | > 100 µM (inactive) | > 100 µM (inactive) | > 100 µM (inactive) | > 100 µM (inactive) | – | > 100 µM (inactive) | > 100 µM (inactive) | – | 21.4 µM (inactive) | > 100 µM (inactive) | > 100 µM (inactive) | > 100 µM (inactive)
N#CC(C#N)=C(N)/C(C#N)=C/c1ccc2ccccc2n1 | > 100 µM (inactive) | > 100 µM (inactive) | 16 µM (inactive) | 18.3 µM (inactive) | 19.5 µM (inactive) | 19.3 µM (inactive) | 23.7 µM (inactive) | 30.5 µM (inactive) | 32.7 µM (inactive) | 31.6 µM (inactive) | 85.7 µM (inactive) | 34.3 µM (inactive) | 13.5 µM (inactive) | 26.2 µM (inactive) | 21.3 µM (inactive) | – | > 100 µM (inactive) | > 10 µM (inactive) | 18.8 µM (inactive) | 24.1 µM (inactive)
COc1ccccc1NC(=S)Nc1cc(C)cc(C)n1 | > 100 µM (inactive) | > 100 µM (inactive) | > 63 µM (inactive) | – | > 100 µM (inactive) | > 100 µM (inactive) | > 100 µM (inactive) | > 100 µM (inactive) | > 100 µM (inactive) | > 100 µM (inactive) | > 100 µM (inactive) | > 100 µM (inactive) | > 70.8 µM (inactive) | > 89.9 µM (inactive) | > 100 µM (inactive) | > 100 µM (inactive) | > 100 µM (inactive) | > 100 µM (inactive) | > 100 µM (inactive) | > 100 µM (inactive)
Cn1c2ccc([N+](=O)[O-])cc2c(=O)c2c(O)cc(O)cc21 | 29.4 µM (inactive) | 47.8 µM (inactive) | – | 32.7 µM (inactive) | 61.1 µM (inactive) | 37.1 µM (inactive) | 57.3 µM (inactive) | > 100 µM (inactive) | > 100 µM (inactive) | – | 24.9 µM (inactive) | 17 µM (inactive) | 52.4 µM (inactive) | > 100 µM (inactive) | 15.3 µM (inactive) | 24.3 µM (inactive) | 45.2 µM (inactive) | 15.7 µM (inactive) | 54.5 µM (inactive) | > 100 µM (inactive)
COc1ccc(/C=C(\C(=C/c2ccc(OC)cc2)[N+](=O)[O-])[N+](=O)[O-])cc1 | 22.7 µM (inactive) | 12.1 µM (inactive) | 5.47 µM (inactive) | 3.84 µM (inactive) | 14.6 µM (inactive) | 2.05 µM (inactive) | 2.07 µM (inactive) | 3.4 µM (inactive) | 3.14 µM (inactive) | 4.46 µM (inactive) | 5.64 µM (inactive) | 1.93 µM (inactive) | 12.8 µM (inactive) | 5.85 µM (inactive) | 14.3 µM (inactive) | 2.24 µM (inactive) | 8.83 µM (inactive) | 2.58 µM (inactive) | 2.91 µM (inactive) | 0.429 µM (active)
O=C1c2c(O)cc(O)cc2C(C2OC(CO)C(O)C(O)C2O)c2cc(CO)cc(O)c21 (stereo unspecified) | > 100 µM (inactive) | > 100 µM (inactive) | > 100 µM (inactive) | > 100 µM (inactive) | – | – | > 100 µM (inactive) | > 100 µM (inactive) | > 100 µM (inactive) | > 100 µM (inactive) | > 100 µM (inactive) | > 100 µM (inactive) | > 100 µM (inactive) | > 100 µM (inactive) | > 100 µM (inactive) | – | > 100 µM (inactive) | > 100 µM (inactive) | > 100 µM (inactive) | > 10 µM (inactive)
Cc1n[nH]/c(=N\S(=O)(=O)c2ccc(/N=N/c3c(O)c(C(=O)O)cc4ccccc34)cc2)s1 | > 100 µM (inactive) | > 100 µM (inactive) | > 100 µM (inactive) | > 100 µM (inactive) | > 100 µM (inactive) | – | > 100 µM (inactive) | > 100 µM (inactive) | > 100 µM (inactive) | > 100 µM (inactive) | > 100 µM (inactive) | > 100 µM (inactive) | > 100 µM (inactive) | > 100 µM (inactive) | > 100 µM (inactive) | > 100 µM (inactive) | > 100 µM (inactive) | > 100 µM (inactive) | > 100 µM (inactive) | > 100 µM (inactive)
Cc1cccc(NC(=O)CCl)c1 | > 10 µM (inactive) | > 10 µM (inactive) | > 10 µM (inactive) | – | > 10 µM (inactive) | 6.19 µM (inactive) | 5.93 µM (inactive) | 9.02 µM (inactive) | > 10 µM (inactive) | 4.26 µM (inactive) | > 10 µM (inactive) | > 10 µM (inactive) | 6.4 µM (inactive) | > 10 µM (inactive) | > 10 µM (inactive) | 9.31 µM (inactive) | > 10 µM (inactive) | 2.24 µM (inactive) | 5.64 µM (inactive) | 2.52 µM (inactive)
CC1(C#N)CC(C)(C)C(/C=C2/CC(C)(C)C(/C=C3/OC(=N)CC3(C)C)=N2)=N1 (stereo unspecified) | 29.5 µM (inactive) | 33.7 µM (inactive) | 23.8 µM (inactive) | 12 µM (inactive) | 24.2 µM (inactive) | 36.2 µM (inactive) | 33.6 µM (inactive) | 21.7 µM (inactive) | 31.4 µM (inactive) | 22.8 µM (inactive) | 15.8 µM (inactive) | 18.2 µM (inactive) | 20 µM (inactive) | 30.6 µM (inactive) | 23.7 µM (inactive) | 62.2 µM (inactive) | 22.7 µM (inactive) | 38.5 µM (inactive) | 20.7 µM (inactive) | 32.4 µM (inactive)
CCc1n[nH]c(=O)n1N1C(=O)C2CCCCC2C1=O (stereo unspecified) | > 100 µM (inactive) | > 100 µM (inactive) | > 100 µM (inactive) | > 100 µM (inactive) | > 100 µM (inactive) | > 100 µM (inactive) | > 100 µM (inactive) | > 100 µM (inactive) | > 100 µM (inactive) | > 100 µM (inactive) | – | > 100 µM (inactive) | > 100 µM (inactive) | > 100 µM (inactive) | > 100 µM (inactive) | – | > 100 µM (inactive) | > 100 µM (inactive) | > 100 µM (inactive) | > 100 µM (inactive)
C=C(C)[C@@H]1CC[C@]2(C(=O)OC)CC[C@]3(C)[C@H](CC[C@@H]4[C@@]5(C)CC[C@H](O)C(C)(C)[C@@H]5CC[C@]43C)[C@@H]12 [METHYL BETULINATE] | 17.7 µM (inactive) | 39.8 µM (inactive) | 18.8 µM (inactive) | 19.4 µM (inactive) | 15.6 µM (inactive) | 18.4 µM (inactive) | 34 µM (inactive) | 21 µM (inactive) | 18.2 µM (inactive) | 30.3 µM (inactive) | 18.5 µM (inactive) | 19 µM (inactive) | 19.8 µM (inactive) | 16.7 µM (inactive) | 18.4 µM (inactive) | 13.7 µM (inactive) | 12 µM (inactive) | 17.8 µM (inactive) | – | 19.4 µM (inactive)
